Experimental data: patent publication US5891848A, “Peptide fragments” (Nippon Zoki Pharmaceutical Co., Ltd., priority 1995, dated 1999)
No end group written: not given here.

Columns and labels:
[1] = test system: senility-accelerated mice (SAM-P/8 strain); assay: Passive avoidance learning test; assay type: in vivo, mouse; details: SAM-P/8, sixth month after birth; s.c. once a week from third week after birth; group 1 150 μg/kg/day, group 2 80 μg/kg/day; test trial 24 hours after acquisition trial; compared to control (SAM-P/8); FIG. 1
Experimental: In a passive avoidance learning test, remembering ability of senility-accelerated mice of the SAM-P/8 strain decreases from the third month from birth. The effect of the peptide of the present invention for improving said learning disability was investigated. Thus, a mouse was placed in front of a dark box and its ability to remember what it learned was measured using the time it took to come into the box as an index. Electric current was turned on in the dark box after the mouse came into the box so that an electric shock was applied. […] The test trial was conducted 24 hours after the acquisition trial.
The peptide of the present invention was subcutaneously injected once a week since the third week after birth and its effect of improving the passive avoiding ability which was lowered in SAM-P/8 was investigated.

[2] = test system: senility-accelerated mice (SAM-P/8 strain); assay: Water maze task (Morris' water maze task); assay type: in vivo, mouse
Excerpt: A platform was placed at 1 cm under the water surface in a circular swimming pool for the experiment and then fine Styrofoam beads were uniformly sprinkled onto the water surface so that a mouse was unable to recognize the platform. Any hint to the mouse in the space around the device (such as persons in charge of the experiment, table, fluorescent light and machines for the experiment) was always kept constant during the experimental period. Four starting points were randomly selected, a mouse was placed into the water, turning its head to the wall of the pool, and its diving time until it escaped to the platform was measured. When the mouse climbed up to the platform, it was left as it was for 15 seconds. […] The case from one starting point was defined as one trial and four trials were done every ten minutes and defined as one block. Four blocks were carried out in total every other day. Senility-accelerated mice (SAM-P/8) which were not administered any compounds of the present invention were used as a control. […] After the above-menfioned four blocks were conducted, the platform was removed, the mouse was permitted to swim for a certain period, and the time for swimming in each of the four areas was measured. […] Therefore, the learning and remembering abilities could be determined measuring the staying time in each of the four areas.

[3] = test system: neuronal death in the CA1 subfields of the hippocampus; assay: Protective effect on cerebral neurons after ischemic insult (common carotid artery occlusion); assay type: in vivo, Wister-strain rat; details: continuous intracerebroventricular infusion 850 μg/ml; carotid occlusion 15 minutes; histology five days after ischemia; 4 rats/group
Experimental: Additionally, the effects of the peptides of the present invention on neuronal death in the CA1 subfields of the hippocampus were tested as follows:
The peptide fragment of the present invention, the 1-29 amino acid residue peptide fragment of bovine aFGF in which Cys, an amino acid at the 16-position, was substituted with Ala or the 1-29 amino acid residue peptide fragment of bovine aFGF in which Cys, an amino acid at the 16-position, was substituted with Ser, was administered by continuous intracerebroventricular infusion (850 μg/ml. respectively) into the lateral cerebral ventricles of Wister-strain rat (250-300 g. 4 rats/a group) and their common carotid arteries were occluded for 15 minutes to induce ischemic insult. Five days after ischemia, the rats were deeply anesthetized with sodium pentobarbital and transcardially perfused. Then, the brains were frozen and cut coronally in 20 μm sections by microtomy, and stained by Nissl bodies. The sections were examined by histological analysis. As a result of the analyses, the protecting effect of the peptide of the present invention on neuronal death in the CA1 subfields of the hippocampus was observed (Ala-substituted peptide; 3/4 rats, Ser-substituted peptide; 4/4 rats).

FNLPLGNYKKPKLLYASNGGTFLRILPDG
latency (seconds): time until the mouse came into the dark box in the test trial [1]: unexpectedly higher | diving time (latency) until escape to the platform, Block 1 to Block 4 ([2]; SAM-P/8, ninth month from birth, dosing as in passive avoidance test, compared to the decrease for control (SAM-P/8), FIG. 2): unexpectedly decreased | staying time in area 3, where the platform was located ([2]; SAM-P/8, platform removed after four blocks, compared to control (SAM-P/8), t-test p<0.001, FIG. 3): unexpectedly higher | protecting effect on neuronal death in the CA1 subfields of the hippocampus observed [3]: 3/4
